Source: patent publication US20040038861A1, “Methods and compositions for normalizing lipid levels in mammalian tissues” (priority 2001, published 2004)

Experiments:
[1] = molecular target: T1, ramp 1/C1ins− receptor (Mus musculus, UniProt Q60755+Q9WTJ5); experiment: cAMP production in L6 myoblasts co-transfected with ramp 1 and C1ins−; format: cell-based, murine; details: 15 min, FIG. 10
T1 construct: expressed in transfected cells; host or cells: L6 myoblasts (ATCC), transient co-transfection of pcDNA3.1 plasmids
T1 sequence (Q60755 42-496 isoform Q60755-2 limits assumed): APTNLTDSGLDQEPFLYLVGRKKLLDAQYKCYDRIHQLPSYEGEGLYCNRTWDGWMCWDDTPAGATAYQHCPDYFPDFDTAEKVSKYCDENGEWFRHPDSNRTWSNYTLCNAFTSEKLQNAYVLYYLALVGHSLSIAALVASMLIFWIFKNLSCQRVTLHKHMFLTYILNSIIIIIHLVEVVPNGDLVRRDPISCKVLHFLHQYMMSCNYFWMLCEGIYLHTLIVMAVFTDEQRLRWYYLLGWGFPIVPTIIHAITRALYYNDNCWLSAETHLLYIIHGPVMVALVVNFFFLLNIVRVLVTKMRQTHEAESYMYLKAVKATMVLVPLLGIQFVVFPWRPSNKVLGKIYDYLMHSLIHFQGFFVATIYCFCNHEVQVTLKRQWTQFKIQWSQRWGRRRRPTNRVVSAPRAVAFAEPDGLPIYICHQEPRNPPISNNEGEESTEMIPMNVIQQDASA
T1 sequence (Q9WTJ5 27-148 partner): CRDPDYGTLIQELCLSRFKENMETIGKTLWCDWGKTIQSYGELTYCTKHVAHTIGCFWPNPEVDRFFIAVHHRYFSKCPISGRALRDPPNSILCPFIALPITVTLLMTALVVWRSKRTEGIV
Description: Transfection of L6 myoblasts and cos-7 cells, and analysis of radioligand binding. L6 myoblasts and cos-7 cells were obtained from ATCC. Both cell lines were cultered in Dulbecco's modified Eagle's medium (DMEM; Gibco/BRL, high glucose) supplemented with 10% fetal calf serum (Gibco/BRL, Gaithersburg, Md.), L-glutamine (2 mM), penicillin (100 U/ml; Sigma), streptomycin ([…]; Sigma), saline (0.85%), under 5% CO2/95% air at 37° C. The day before transfection, cells were trypsinised and seeded into six-well plates at a density of 2.9×10^5 cells/well in the same medium. For transfection, cells were incubated with a mixture comprising 1 μg each of Qiagen-purified (Qiagen, Valencia, Calif.) plasmids containing C1ins− with either ramp 1 or ramp 3, and Fugene reagent (6 μl; Boehringer Mannheim) in Opti-Mem I medium (Gibco/BRL). The complex was added with serum to cells, which were incubated for a further 48 h.
Determination of cAMP in cultured cells and soleus muscle strips. cAMP concentration was measured in cells seeded in six-well plates and transfected as described. Following aspiration, cells were incubated for 15 min at room temperature in the presence of stated concentrations of ligands in binding buffer. Isobutylmethylxanthine (Sigma) was added to a final concentration of 0.5 mM together with stated concentrations of peptides, and the reaction terminated by aspiration. Cells were washed with 0.5 ml ice-cold TE buffer (10 mM Tris/HCl, 1 mM EDTA, pH 7.6) and rapidly transferred to eppendorf tubes in 1 ml of the same buffer, then boiled for 5 min. Following centrifugation at 12,000 g for 5 min at 4° C., then cooling on ice, duplicate 50 μl aliquots were analyzed for cAMP using an assay system based on competitive binding (Arnersham Pharmacia) according to the manufacturer's instructions.

[2] = test system: soleus muscle; experiment: Incorporation of D[14C(U)]glucose into glycogen in isolated incubated soleus muscle; format: cell-based, rat; details: for rate of D[14C(U)]glucose incorporation into glycogen: 10 nM peptide, 2 h; for EC50: isolated rat soleus muscle
Description: (§1) Soleus muscle preparation. All experiments were performed according to protocols approved by the Institutional Animal Ethics Committee. 5-6 week-old male Wistar rats (160 g) were kept on a 12:12-h light/dark cycle, and fed and watered ad libitum. Animals were anaesthetised with 50 mg/kg Nembutal (pentobarbitone sodium), then sacrificed by cervical dislocation. Soleus muscles were dissected under oxygenated KHB (118 mM NaCl, 4.75 mM KCl, 1.2 mM MgSO4, 24.8 mM NaHCO3, 1.2 mM KH2PO4, 2.54 mM CaCl2, 10 mM glucose, pH 7.4) and teased into halves, then incubated as described below.
Measurement of glycogen metabolism in isolated, incubated soleus muscle. […]. Glycogen was precipitated overnight at −20° C. with 96% ethanol (1.2 ml), followed by centrifugation at 8,000 g (15 min, 4° C.). Pellets were washed twice with the same amount of ethanol then dissolved in water (0.6 ml). Aliquots (0.3 ml) were analyzed for D[^14C(U)] glucose content by liquid scintillation spectrometry.
(§2) Data analysis. One way ANOVA, Dunnett's Multiple Comparisons Test, and unpaired Student's t-tests were used to calculate the statistical significance of differences, as appropriate. Dose-response curves were fitted to a sigmoidal dose-response algorithm, as follows: Y=minimum+(maximum−minimum)/([…] log ^(EC50^−X), for 2-DOG-uptake; and by a four parameter logistic model, Y=minimum+(maximum−minimum)/(1+10 log ^(EC50^−X)Hill-Coefficient) for total glycogen and [^14C]glucose incorporation. Calculations were performed using Prism v2.0 (GraphPad Software, San Diego, Calif.) to derive values for half-maximal effective concentration (EC50). Displacement curves derived for competition of bound radioligand with cold ligand in transfected cells were calculated according to a one site competition fit using Prism v2.0.

[3] = test system: soleus muscle; experiment: cAMP content of isolated soleus muscle from normal fed rats; format: cell-based, rat
Description: as §1
(§3) For the measurement of cAMP in muscle, isolated soleus strips were incubated with stated concentrations of peptides, then lyophilized and deproteinized. Each strip was placed in 400 μl of 0.5 M HClO4 with 5 mM EDTA (phosphodiesterase inhibitor) and sonicated three times in 20 s bursts. Tubes were heated for 3-5 min in boiling water to coagulate protein, then centrifuged (12,000 g, 4° C., 2 min). Supernatant (300 μl) was taken and the pH adjusted to 7.0 with 75 μl of 2 M NH4OH. The samples were refrigerated (4° C., 2 h) to precipitate proteins, then centrifuged under the same conditions as above and 50 μl taken for cAMP measurement.

[4] = test system: soleus muscle; experiment: Total glycogen content in isolated incubated soleus muscle; format: cell-based, rat; details: for total glycogen content: 10 nM peptide, 2 h; for EC50: isolated rat soleus muscle
Description: as §1
Total glycogen content was measured in muscle strips by lyophilization followed by hydrolysis of glycogen to D-glucose with amyloglucosidase (Sigma) 20 U/100 ml in 0.2 M sodium acetate/acetic acid buffer, pH 4.8, and expressed as μmol ‘glucosyl’ units/g dry muscle weight. Free glucose in supernatant solutions was measured with a glucose/lactate analyzer (YSI 2300STAT, Yellow Springs Corporation) using D-glucose oxidase immobilized enzyme chemistry.
as §2

[5] = test system: soleus muscle; experiment: cAMP content of isolated soleus muscle from high fat-fed rats; format: cell-based, rat
Description: as §1, §3

[6] = absence of insulin, control 4.8±0.3
[7] = maximal insulin, control 27.6±1.4
[8] = absence of insulin, basal 90.8±3.7
[9] = insulin 23.7 nM, insulin alone 138±4.8

Substance	cAMP production in co-transfected myoblasts [1]	rate of D[14C(U)]glucose incorporation into glycogen [2, 6] [μmol/g dry-wt muscle/h]	rate of D[14C(U)]glucose incorporation into glycogen [2, 7] [μmol/g dry-wt muscle/h]	EC50 ([2]; absence of insulin) [nM]	EC50 ([2]; human insulin 23.7 nM) [nM]	maximal increase in cAMP content ([3]; 10 nM or 100 nM amylin, absence or presence of insulin)	effect of picomolar concentrations on muscle cAMP levels ([3]; FIG. 13C)	total glycogen content [4, 8] [μmol/g dry-wt muscle/h]	total glycogen content [4, 9] [μmol/g dry-wt muscle/h]	EC50 ([4]; absence of insulin) [nM]	EC50 ([4]; human insulin 23.7 nM) [nM]	cAMP content, agonist alone ([5]; 1 pM CGRP, control 5.7±0.2) [pmol/mg]	cAMP content, agonist alone ([5]; 100 nM CGRP1, control 5.7±0.2) [pmol/mg]	muscle cAMP content ([3]; CGRP at both 5 nM and 100 nM, absence or presence of insulin (23.7 nM))	cAMP content, agonist alone ([3]; normal fed, 100 nM CGRP or adrenaline, control 3.9±0.2) [pmol/mg]	cAMP increase with 1 pM CGRP ([3]; normal fed, 1 hr incubation)
Rat amylin	dose-dependent increases of cAMP production	2.7±0.8	16.0±2.5	9.4	9.2	about 2 fold	no effect	65.6±9.1	86.7	8	8.1					
rat CGRP-1	dose-dependent increases of cAMP production	2.8±0.3	13.7±0.7	3.1	0.7			71.4±7.7	113±6.9	3.2	4.3	8.6 ± 0.4	9.3 ± 1	significant increases in muscle cAMP content	6.9 ± 0.8	No significant cAMP increase
